Measured values from patent publication US11555012B2 (Nimbus Artemis, Inc., priority 2018, dated 2023).

Target: ACL (Homo sapiens (Human), UniProt P53396)
Assay: ADP-Glo Assay

Chain of ACL (P53396 other isoform, or with tags, fused parts or gaps isoform P53396-2): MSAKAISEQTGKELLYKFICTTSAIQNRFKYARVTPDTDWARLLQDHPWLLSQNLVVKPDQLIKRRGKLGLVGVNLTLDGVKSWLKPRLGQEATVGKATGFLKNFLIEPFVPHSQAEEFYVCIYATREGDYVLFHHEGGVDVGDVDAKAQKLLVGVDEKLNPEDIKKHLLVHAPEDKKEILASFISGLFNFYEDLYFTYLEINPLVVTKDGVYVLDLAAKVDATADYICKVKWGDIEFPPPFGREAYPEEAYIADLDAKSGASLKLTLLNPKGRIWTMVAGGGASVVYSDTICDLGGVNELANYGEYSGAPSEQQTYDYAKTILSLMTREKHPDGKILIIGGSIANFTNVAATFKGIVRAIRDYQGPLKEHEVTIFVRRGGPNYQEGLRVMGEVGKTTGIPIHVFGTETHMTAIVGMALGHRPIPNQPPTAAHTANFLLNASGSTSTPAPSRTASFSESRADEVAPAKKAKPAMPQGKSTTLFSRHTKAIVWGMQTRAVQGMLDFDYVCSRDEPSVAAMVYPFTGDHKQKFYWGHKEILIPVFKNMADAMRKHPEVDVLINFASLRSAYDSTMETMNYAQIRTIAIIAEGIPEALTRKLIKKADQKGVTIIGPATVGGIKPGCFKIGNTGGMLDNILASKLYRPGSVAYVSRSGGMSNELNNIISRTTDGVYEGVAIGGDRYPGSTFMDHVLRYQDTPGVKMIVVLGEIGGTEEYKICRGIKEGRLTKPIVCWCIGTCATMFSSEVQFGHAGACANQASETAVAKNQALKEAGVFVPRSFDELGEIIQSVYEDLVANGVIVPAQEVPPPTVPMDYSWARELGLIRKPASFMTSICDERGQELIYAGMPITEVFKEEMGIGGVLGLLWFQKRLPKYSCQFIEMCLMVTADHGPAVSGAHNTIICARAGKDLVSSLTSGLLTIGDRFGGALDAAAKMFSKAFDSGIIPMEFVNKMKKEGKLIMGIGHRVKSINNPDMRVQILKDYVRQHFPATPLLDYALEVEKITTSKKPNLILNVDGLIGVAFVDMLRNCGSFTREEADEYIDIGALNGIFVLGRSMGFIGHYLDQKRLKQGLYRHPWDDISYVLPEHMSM

Row | SMILES | IC50
1 | COc1ccc(-c2ccccc2)cc1NS(=O)(=O)c1cc(Cl)cc(C(=O)O)c1O [I-3, 5-chloro-2-hydroxy-3-(N-(4-methoxy-[1,1′-biphenyl]-3-yl)sulfamoyl)benzoic Acid] | 0.5 to 20 µM
2 | COc1ccc(Br)cc1NS(=O)(=O)c1cc(Cl)cc(Cl)c1O [I-4, N-(5-bromo-2-methoxyphenyl)-3,5-dichloro-2-Hydroxybenzenesulfonamide] | 0.5 to 20 µM
3 | COc1ccc(-c2ccc(OC)c(NS(=O)(=O)c3cc(Cl)cc(Cl)c3O)c2)cc1 [I-5, 3,5-dichloro-N-(4,4′-dimethoxy-[1,1′-biphenyl]-3-yl)-2-hydroxybenzenesulfonamide] | 0.5 to 20 µM
4 | COc1ccc(NC(=O)C2CC2)cc1NS(=O)(=O)c1cc(Cl)cc(Cl)c1O [I-8, N-(3-((3,5-dichloro-2-hydroxyphenyl)sulfonamido)-4-methoxyphenyl) cyclopropanecarboxamide] | 0.5 to 20 µM
5 | COc1ccc(N2CCCCC2)cc1NS(=O)(=O)c1cc(Cl)cc(Cl)c1O [I-10, 3,5-dichloro-2-hydroxy-N-(2-methoxy-5-(piperidin-1-yl)phenyl)benzenesulfonamide] | 0.5 to 20 µM
6 | COc1cccc(-c2ccccc2)c1NS(=O)(=O)c1cc(Cl)cc(Cl)c1O [I-14, 3,5-dichloro-2-hydroxy-N-(3-methoxy-[1,1′-biphenyl]-2-yl)benzenesulfonamide] | 0.5 to 20 µM
7 | COc1ccc(-c2ccccc2)cc1N(C)S(=O)(=O)c1cc(Cl)cc(Cl)c1O [I-17, 3,5-dichloro-2-hydroxy-N-(4-methoxy-[1,1′-biphenyl]-3-yl)-N-methylbenzenesulfonamide] | 0.5 to 20 µM
8 | COc1ccc(-c2ccccc2)cc1NC(=O)c1cc(Cl)cc(Cl)c1O [I-18, 3,5-dichloro-2-hydroxy-N-(4-methoxy-[1,1′-biphenyl]-3-yl)benzamide] | 0.5 to 20 µM
9 | O=S(=O)(Nc1cc(-c2ccccc2)ccc1O)c1cccc(-c2nn[nH]n2)c1 [I-25, N-(2-hydroxy-5-phenylphenyl)-3-(2H-1,2,3,4-tetrazol-5-yl) benzene-1-sulfonamide] | 0.5 to 20 µM
10 | O=C(Nc1cc(-c2ccccc2)ccc1F)c1cc(Cl)cc(Cl)c1O [I-27, 3,5-dichloro-N-(4-fluoro-[1,1′-biphenyl]-3-yl)-2-hydroxybenzamide] | 0.5 to 20 µM
11 | O=S(=O)(Nc1cc(-c2ccccc2)ccc1F)c1cc(Cl)ccc1O [I-30, 5-chloro-N-(2-fluoro-5-phenylphenyl)-2-hydroxybenzene-1-sulfonamide] | 0.5 to 20 µM
12 | O=S(=O)(Nc1cc(-c2ccccc2)ccc1F)c1ccccc1O [I-35, N-(2-fluoro-5-phenylphenyl)-2-hydroxybenzene-1-sulfonamide] | 0.5 to 20 µM
13 | O=S(=O)(Nc1cc(-c2ccccc2)ccc1F)c1cccc(-c2nn[nH]n2)c1 [I-37, N-(2-fluoro-5-phenylphenyl)-3-(2H-1,2,3,4-tetrazol-5-yl) benzene-1-sulfonamide] | 0.5 to 20 µM
14 | COc1ccc(-c2ccccc2)cc1NS(=O)(=O)c1cc(Cl)cc(-c2nn[nH]n2)c1 [I-38, 3-chloro-N-(2-methoxy-5-phenylphenyl)-5-(2H-1,2,3,4-tetrazol-5-yl)benzene-1-sulfonamide] | 0.5 to 20 µM
15 | COc1ccc(-c2ccccc2)cc1NS(=O)(=O)c1cc(C(=O)O)cc(Cl)c1OC [I-39, 3-chloro-4-methoxy-5-(N-(4-methoxy-[1,1′-biphenyl]-3-yl)sulfamoyl)benzoic Acid] | 0.5 to 20 µM
16 | COc1ccc(-c2ccccc2)cc1NS(=O)(=O)c1cc(F)cc(F)c1O [I-40, 3,5-difluoro-2-hydroxy-N-(2-methoxy-5-phenylphenyl) benzene-1-sulfonamide] | 0.5 to 20 µM
17 | COC(=O)c1cc(Cl)c(OC)c(S(=O)(=O)Nc2cc(-c3cccnc3)ccc2OC)c1 [I-42, Methyl 3-chloro-4-methoxy-5-(N-(2-methoxy-5-(pyridine-3-yl)phenyl)sulfamoyl)benzoate] | 0.5 to 20 µM
18 | COC(=O)c1ccc(F)c(NS(=O)(=O)c2cc(Cl)cc(Cl)c2O)c1 [I-43, Methyl 3-((3,5-dichloro-2-hydroxyphenyl)sulfonamido)-4-fluorobenzoate] | 0.5 to 20 µM
19 | COc1ccc(-c2ccccc2)cc1NS(=O)(=O)c1cc(Cl)c(O)c(Br)c1 [I-44, 3-bromo-5-chloro-4-hydroxy-N-(2-methoxy-5-phenylphenyl)benzene-1-sulfonamide] | 0.5 to 20 µM
20 | O=C(NO)c1ccc(F)c(NS(=O)(=O)c2cc(Cl)cc(Cl)c2O)c1 [I-45, 3-[(3,5-dichloro-2-hydroxybenzene)sulfonamido]-4-fluoro-N-hydroxybenzamide] | 0.5 to 20 µM
21 | COc1c(Cl)cc(C#N)cc1S(=O)(=O)Nc1cc(-c2ccccc2)ccc1F [I-51, 3-chloro-5-cyano-N-(4-fluoro-[1,1′-biphenyl]-3-yl)-2-methoxybenzenesulfonamide] | 0.5 to 20 µM
22 | COC(=O)c1cc(Cl)c(OC)c(S(=O)(=O)Nc2cc(-c3cccs3)ccc2F)c1 [I-52, Methyl 3-chloro-5-(N-(2-fluoro-5-(thiophen-2-yl)phenyl)sulfamoyl)-4-methoxybenzoate] | 0.5 to 20 µM

Row | SMILES | IC50
23 | O=S(=O)(Nc1cc(-c2ccccc2)ccc1F)c1cc(Cl)c(O)cc1O [I-54, 5-chloro-N-(2-fluoro-5-phenylphenyl)-2,4-dihydroxybenzene-1-sulfonamide] | 0.5 to 20 µM
24 | Nc1cc(-c2ccccc2)ccc1NS(=O)(=O)c1cc(Cl)cc(Br)c1O [I-57, N-(2-amino-4-phenylphenyl)-3-bromo-5-chloro-2-hydroxybenzene-1-sulfonamide] | 0.5 to 20 µM
25 | O=C(Nc1ccccc1)c1ccc(F)c(NS(=O)(=O)c2cc(Cl)cc(Cl)c2O)c1 [I-61, 3-((3,5-dichloro-2-hydroxyphenyl)sulfonamido)-4-fluoro-N-phenylbenzamide] | 0.5 to 20 µM
26 | COC(=O)c1cc(Cl)c(OC)c(S(=O)(=O)Nc2cc(-c3ccccc3)c(F)cc2F)c1 [I-63, Methyl 3-chloro-5-(N-(4,6-difluoro-[1,1′-biphenyl]-3-yl)sulfamoyl)-4-methoxybenzoate] | 0.5 to 20 µM
27 | COc1ccc(-c2ccccc2)cc1NS(=O)(=O)c1cc(CC(=O)O)cc(Cl)c1O [I-68, 2-[3-chloro-4-hydroxy-5-[(2-methoxy-5-phenylphenyl)sulfamoyl]phenyl]acetic Acid] | 0.5 to 20 µM
28 | O=S(=O)(Nc1cc(F)ccc1F)c1cc(Cl)cc(Cl)c1O [I-69, 3,5-dichloro-N-(2,5-difluorophenyl)-2-hydroxybenzene-1-sulfonamide] | 0.5 to 20 µM
29 | COc1c(Cl)cc(C(=O)O)cc1S(=O)(=O)Nc1cc(-c2ccccc2)ccc1F [I-70, 3-chloro-5-([4-fluoro-[1,1-biphenyl]-3-yl]sulfamoyl)-4-methoxybenzoic Acid] | 0.5 to 20 µM
30 | COc1ccc(-c2ccccc2)cc1NS(=O)(=O)c1cc(-c2nn[nH]n2)cc(Cl)c1OC [I-71, 3-chloro-2-methoxy-N-(2-methoxy-5-phenylphenyl)-5-(2H-1,2,3,4-tetrazol-5-yl)benzene-1-sulfonamide] | 0.5 to 20 µM
31 | O=S(=O)(Nc1cc(-c2ccccc2)c(F)cc1F)c1cc(Cl)cc(-c2nn[nH]n2)c1 [I-72, 3-chloro-N-(2,4-difluoro-5-phenylphenyl)-5-(2H-1,2,3,4-tetrazol-5-yl)benzene-1-sulfonamide] | 0.5 to 20 µM
32 | COc1ccc(-c2ccccc2)cc1NS(=O)(=O)c1cc(-c2nn[nH]n2)cc(Cl)c1O [I-73, 3-chloro-2-hydroxy-N-(2-methoxy-5-phenylphenyl)-5-(2H-1,2,3,4-tetrazol-5-yl)benzene-1-sulfonamide] | 0.5 to 20 µM
33 | N#Cc1cc(Cl)cc(S(=O)(=O)Nc2cc(-c3ccccc3)c(F)cc2F)c1 [I-75, 3-chloro-5-cyano-N-(2,4-difluoro-5-phenylphenyl) benzene-1-sulfonamide] | 0.5 to 20 µM
34 | O=C(O)c1cc(Cl)c(O)c(S(=O)(=O)Nc2ccc(F)cc2F)c1 [I-76, 3-chloro-5-[(2,4-difluorophenyl)sulfamoyl]-4-hydroxybenzoic Acid] | 0.5 to 20 µM
35 | O=C(O)COc1c(Cl)cc(Cl)cc1S(=O)(=O)Nc1cc(-c2ccccc2)c(F)cc1F [I-77, 2-(2,4-dichloro-6-(N-(4,6-difluoro-[1,1′-biphenyl]-3-yl)sulfamoyl)phenoxy)acetic Acid] | 0.5 to 20 µM
36 | COC(=O)COc1c(Br)cc(Cl)cc1S(=O)(=O)Nc1cc(-c2ccccc2)ccc1F [I-78, Methyl 2-(2-bromo-4-chloro-6-(N-(4-fluoro-[1,1′-biphenyl]-3-yl)sulfamoyl)phenoxy)acetate] | 0.5 to 20 µM
37 | COC(=O)COc1c(Cl)cc(Cl)cc1S(=O)(=O)Nc1cc(-c2ccccc2)c(F)cc1F [I-79, Methyl 2-[2,4-dichloro-6-[(2,4-difluoro-5-phenylphenyl)sulfamoyl]phenoxy]acetate] | 0.5 to 20 µM
38 | O=S(=O)(Nc1cc(-c2ccccc2)ccc1F)c1cc(Cl)cc(Cl)c1OCC(F)(F)F [I-85, 3,5-dichloro-N-(2-fluoro-5-phenylphenyl)-2-(2,2,2-trifluoroethoxy)benzene-1-sulfonamide] | 0.5 to 20 µM
39 | O=S(=O)(Nc1sccc1-c1ccccc1)c1cc(Cl)cc(Cl)c1O [I-89, 3,5-dichloro-2-hydroxy-N-(3-phenylthiophen-2-yl) benzenesulfonamide] | 0.5 to 20 µM
40 | O=S(=O)(Nc1cc(-c2ccccc2)c(F)cc1F)c1cccc(-c2nn[nH]n2)c1 [I-96, N-(2,4-difluoro-5-phenylphenyl)-3-(2H-1,2,3,4-tetrazol-5-yl)benzene-1-sulfonamide] | 0.5 to 20 µM
41 | O=S(=O)(Nc1cc(-c2ccccc2)ccc1F)c1cc(Cl)cc(Cl)c1Oc1nccs1 [I-97, 3,5-dichloro-N-(2-fluoro-5-phenylphenyl)-2-(1,3-thiazol-2-yloxy)benzene-1-sulfonamide] | 0.5 to 20 µM
42 | C=CCN(c1cc(-c2ccccc2)ccc1F)S(=O)(=O)c1cc(C(=O)OC)cc(Cl)c1O [I-108, Methyl 3-(N-allyl-N-(4-fluoro-[1,1′-biphenyl]-3-yl)sulfamoyl)-5-chloro-4-hydroxybenzoate] | 0.5 to 20 µM
43 | Cn1ncc(-c2ccccc2)c1NS(=O)(=O)c1cc(Cl)cc(Cl)c1O [I-109, 3,5-dichloro-2-hydroxy-N-(1-methyl-4-phenyl-1H-pyrazol-5-yl)benzenesulfonamide] | 0.5 to 20 µM
44 | COC(=O)c1cc(Cl)c(OCC(=O)O)c(S(=O)(=O)Nc2cc(-c3ccccc3)ccc2F)c1 [I-114, 2-[2-chloro-6-([4-fluoro-[1,1-biphenyl]-3-yl]sulfamoyl)-4-(methoxycarbonyl)phenoxy]acetic Acid] | 0.5 to 20 µM
